Measured values from patent publication US20080096967A1, “Formulations for Injection of Catecholic Butanes, Including Ndga Compounds, Into Animals” (priority 2005, published 2008).

Key:
[1] = 40 mg/mL M4N/PEG 300 stability: RP-HPLC analysis; assay type: physicochemical
Description: The stability of 40 mg/mL M4N dissolved in 100% PEG 300 was evaluated up to 24 hours incubation at 30° C., 45° C. and 60° C. A stock 40 mg/mL M4N in PEG 300 was prepared at 60° C., following the procedure set forth in Example 17. Subsequently, aliquots were removed and incubated at the appropriate temperature. Samples were rotated at 450 rpm during the entire course of incubation. Visual observations and RP-HPLC data were collected throughout. […] The formation of crystals coincided with a loss of soluble M4N (Table 30). The 40 mg/mL M4N/PEG 300 samples incubated at 45° C. and 60° C. were stable after 24 hours incubation as assessed by visual observations and RP-HPLC analysis (Tables 29 and 30).

[2] = parameters: species or system Beagle dogs; conditions: in vivo
Description: Following completion of each intravenous infusion, 1 mL of sterile saline was administered as a slow bolus injection to flush the test material from the infusion line into the animal, followed by an injection of heparin-saline solution to fill the infusion line to maintain patency. The animals were observed. Cageside observation included observation for mortality, morbundity, general health, and signs of toxicity. Clinical observations included evaluation of skin and fur characteristics, surgical site, eye and mucous membranes, respiratory, circulatory, autonomic and central nervous systems, and somatomotor and behavior patterns. Blood was collected and placed into 2.5 mL serum separator tubes for serum M4N concentration analysis. The tubes were inverted several times, stored on wet ice, and centrifuged at about 3000 rpm for about 10 min. at 4° C. Serum was transferred to microcentrifuge tubes and stored at −75±10° C.
Samples were shipped on dry ice to the Analytical Chemistry Laboratory of GeneLogic (Gaithersburg, Md., U.S.A.) for test article analysis. The method involved treating aliquots of dog serum, at least 0.5 mL, with acetonitrile, filtering, and injecting the filtrate onto an HPLC column with tandem mass-spectrometry detection (LC-MS/MS). The analyte was quantified using an external standard curve with triazolam as an internal standard.

COc1ccc(C[C@@H](C)[C@@H](C)Cc2ccc(OC)c(OC)c2)cc1OC [Formulation M4N, meso-1,4-bis(3,4-dimethoxyphenyl)-2,3-dimethylbutane]
impurities peaks ([1]; 40 mg/mL M4N/PEG 300, 30° C., 45° C. and 60° C.): No changes
loss in soluble M4N ([1]; 40 mg/mL M4N/PEG 300, 24 hours at 30° C.): > 5%
M4N in serum 16 hr following the infusion period ([2]; dog): still detectable
M4N serum levels, female dog vs male dog [2]: higher in the female dog
